Several values for one entry are separate records, joined by “and”; a condition that tells them apart may be missing. Equal values may be shown once. Where only a bound is given, the exact number is not on record here.

The target of the first experiment is T1, myeloperoxidase (MPO) (Homo sapiens, UniProt P05164).
T1 sequence (P05164 49-745): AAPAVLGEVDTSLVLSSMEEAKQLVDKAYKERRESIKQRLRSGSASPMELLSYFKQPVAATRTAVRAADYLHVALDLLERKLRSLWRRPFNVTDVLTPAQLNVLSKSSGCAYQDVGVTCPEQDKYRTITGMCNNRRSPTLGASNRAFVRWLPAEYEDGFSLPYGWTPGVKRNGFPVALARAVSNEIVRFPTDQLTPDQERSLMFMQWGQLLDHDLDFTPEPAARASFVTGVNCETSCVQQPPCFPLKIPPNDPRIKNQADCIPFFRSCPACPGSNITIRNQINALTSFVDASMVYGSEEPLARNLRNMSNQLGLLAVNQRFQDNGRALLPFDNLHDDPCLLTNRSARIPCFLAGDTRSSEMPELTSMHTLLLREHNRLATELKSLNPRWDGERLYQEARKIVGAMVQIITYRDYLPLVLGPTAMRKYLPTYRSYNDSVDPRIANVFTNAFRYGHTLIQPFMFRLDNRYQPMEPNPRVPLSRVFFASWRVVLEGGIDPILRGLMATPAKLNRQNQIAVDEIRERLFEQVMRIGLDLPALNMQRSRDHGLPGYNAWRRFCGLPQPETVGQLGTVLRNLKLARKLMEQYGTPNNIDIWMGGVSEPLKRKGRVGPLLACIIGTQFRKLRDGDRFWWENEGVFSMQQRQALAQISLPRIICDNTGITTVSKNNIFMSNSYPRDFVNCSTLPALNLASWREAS
The experiment is described as follows: MPO peroxidation assay (Amplex Red assay). Particulars: MPO peroxidation (Amplex Red), ranges given; read-out: MPO peroxidation assay IC50 values (binned). The class given is biochemical. The method, then:
MPO Peroxidation Assay (Amplex Red Assay)
MPO peroxidation activity was measured in 100 mM KPi (pH 7.4) by utilizing the non-fluorescent reagent Amplex Red (Invitrogen Cat. #A12222) which can be oxidized to the highly fluorescent resorufin. Amplex Red is oxidized by the peroxidase action of MPO to resorufin. […] Enzyme and compound were preincubated for ten minutes at room temperature.
After the ten minute preincubation, 25 μL of an Amplex Red mixture containing 200 μM Amplex Red and 10 mM H2O2 was added to the plate.
IC50 values were calculated by determining the slope of the linear portion of the kinetic trace (180-540 secs), and using that calculated slope to determine % inhibition occurring at each concentration of inhibitor using the following equation:
[formula] where A=minimal Y value (activity level of inhibited sample), B=maximal Y value (activity level of uninhibited sample), C=Log IC50, D=Hill Slope, x=concentration of inhibitor. MPO Chlorination Assay (APF Assay)
One may read the IC50 as the concentration at which inhibition is half-maximal. On to `Nc1cc(OCc2nn(-c3cccc(Cl)c3)c3c2CCNC3=O)c2nn[nH]c2n1` [Example 51, 3-(((5-Amino-3H-[1,2,3]triazolo[4,5-b]pyridin-7-yl)oxy)methyl)-1-(3-chlorophenyl)-5,6-dihydro-1H-pyrazolo[3,4-c]pyridin-7(4H)-one], for which the IC50 was in the range of 60 to 150 nM.
In the case of `Cc1nc(-c2ccccc2)oc1COc1cc(N)nc2[nH]nnc12` [Example 54, 7-((4-Methyl-2-phenyloxazol-5-yl)methoxy)-3H-[1,2,3]triazolo[4,5-b]pyridin-5-amine], the half-inhibitory concentration (IC50) lay in the range of 60 to 150 nM.
Same read-out and setting: in the case of `COCc1nn(-c2ccccc2)nc1COc1cc(N)nc2[nH]nnc12` [Example 56, 7-((5-(Methoxymethyl)-2-phenyl-2H-1,2,3-triazol-4-yl)methoxy)-3H-[1,2,3]triazolo[4,5-b]pyridin-5-amine] it was 60 to 150 nM.
Consider `Cc1nn(-c2ccc(Br)cc2)nc1COc1cc(N)nc2[nH]nnc12` [Example 58, 7-((2-(4-Bromophenyl)-5-methyl-2H-1,2,3-triazol-4-yl)methoxy)-3H-[1,2,3]triazolo[4,5-b]pyridin-5-amine], for which the IC50 is 150 to 1000 nM.
On the same count and under the same terms, in the case of `Cc1nn(-c2ccc(N3CCNCC3)cc2)nc1COc1cc(N)nc2[nH]nnc12` [Example 63, 7-((5-Methyl-2-(4-(piperazin-1-yl)phenyl)-2H-1,2,3-triazol-4-yl)methoxy)-3H-[1,2,3]triazolo[4,5-b]pyridin-5-amine] it was 60 to 150 nM; in that of `N#Cc1nn(-c2ccccc2)nc1COc1cc(N)nc2[nH]nnc12` [Example 65, 5-(((5-Amino-3H-[1,2,3]triazolo[4,5-b]pyridin-7-yl)oxy)methyl)-2-phenyl-2H-1,2,3-triazole-4-carbonitrile], no more than 60 nM; in that of `Cc1nn(Cc2ccccc2)nc1COc1cc(N)nc2[nH]nnc12` [Example 66, 7-((2-Benzyl-5-methyl-2H-1,2,3-triazol-4-yl)methoxy)-3H-[1,2,3]triazolo [4,5-b]pyridin-5-amine], no more than 60 nM.
The same measure, in the same setting: in the case of `Cc1nn(C2CCNCC2)nc1COc1cc(N)nc2[nH]nnc12` [Example 68, 7-((5-Methyl-2-(piperidin-4-yl)-2H-1,2,3-triazol-4-yl)methoxy)-3H-[1,2,3]triazolo[4,5-b]pyridin-5-amine] it was 60 to 150 nM.
On to `Cc1nn(CC2CCNC2)nc1COc1cc(N)nc2[nH]nnc12` (stereo not drawn) [Example 69, 7-((5-Methyl-2-(pyrrolidin-3-ylmethyl)-2H-1,2,3-triazol-4-yl)methoxy)-3H-[1,2,3]triazolo[4,5-b]pyridin-5-amine], for which the IC50 was 150 to 1000 nM.
Turning to `Cc1nn(Cc2c[nH]cn2)nc1COc1cc(N)nc2[nH]nnc12` [Example 71, 7-((2-((1H-Imidazol-4-yl)methyl)-5-methyl-2H-1,2,3-triazol-4-yl)methoxy)-3H-[1,2,3]triazolo[4,5-b]pyridin-5-amine], the half-inhibitory concentration (IC50) is 60 to 150 nM and 150 to 1000 nM.
With `Cc1nn(C[C@@H]2C[C@H](Oc3ccccc3)CN2)nc1COc1cc(N)nc2[nH]nnc12` [Example 73, 7-((5-Methyl-2-(((2S,4S)-4-phenoxypyrrolidin-2-yl)methyl)-2H-1,2,3-triazol-4-yl)methoxy)-3H-[1,2,3]triazolo[4,5-b]pyridin-5-amine], the IC50 is no more than 60 nM.
`Cc1nn(Cc2cccc(C3CCNCC3)c2)nc1COc1cc(N)nc2[nH]nnc12` [Example 78, 7-((5-Methyl-2-(3-(piperidin-4-yl)benzyl)-2H-1,2,3-triazol-4-yl)methoxy)-3H-[1,2,3]triazolo[4,5-b]pyridin-5-amine]: the IC50 is no more than 60 nM.
Take `COc1ncc(Br)cc1COc1cc(N)nc2[nH]nnc12` [Example 81, 7-((5-Bromo-2-methoxypyridin-3-yl)methoxy)-3H-[1,2,3]triazolo[4,5-b]pyridin-5-amine]: the IC50 is no more than 60 nM.
With `Nc1cc(OCc2ccc(C(F)(F)F)o2)c2nn[nH]c2n1` [Example 82, 7-((5-(Trifluoromethyl)furan-2-yl)methoxy)-3H-[1,2,3]triazolo[4,5-b]pyridin-5-amine], the IC50 was no more than 60 nM.
Still for that read-out and setting: in the case of `Nc1cc(OCC2CCN(c3ncccn3)CC2)c2nn[nH]c2n1` [Example 84, 7-((1-(Pyrimidin-2-yl)piperidin-4-yl)methoxy)-3H-[1,2,3]triazolo[4,5-b]pyridin-5-amine] it was 60 to 150 nM.
Turning to `Nc1cc(OCc2ncc(Br)cc2F)c2nn[nH]c2n1` [Example 87, 7-((5-Bromo-3-fluoropyridin-2-yl)methoxy)-3H-[1,2,3]triazolo[4,5-b]pyridin-5-amine], the IC50 is no more than 60 nM.
Consider `Nc1cc(OCc2cc(Cl)ncc2F)c2nn[nH]c2n1` [Example 88, 7-((2-Chloro-5-fluoropyridin-4-yl)methoxy)-3H-[1,2,3]triazolo[4,5-b]pyridin-5-amine], for which the 50% inhibitory concentration (IC50) lay within 60 to 150 nM.
Same read-out and setting: the figure for `Nc1cc(OCc2ncccc2F)c2nn[nH]c2n1` [Example 89, 7-((3-Fluoropyridin-2-yl)methoxy)-3H-[1,2,3]triazolo[4,5-b]pyridin-5-amine] is no more than 60 nM; for `Nc1cc(OCc2cnccc2Cl)c2nn[nH]c2n1` [Example 91, 7-((4-Chloropyridin-3-yl)methoxy)-3H-[1,2,3]triazolo[4,5-b]pyridin-5-amine] it is 60 to 150 nM.
On to `Nc1cc(OCc2ccc(Br)cn2)c2nn[nH]c2n1` [Example 92, 7-((5-Bromopyridin-2-yl)methoxy)-3H-[1,2,3]triazolo[4,5-b]pyridin-5-amine], for which the IC50 is 60 to 150 nM.
Regarding `Cn1nc(COc2cc(N)nc3[nH]nnc23)cc1Br` [Example 93, 7-((5-Bromo-1-methyl-1H-pyrazol-3-yl)methoxy)-3H-[1,2,3]triazolo[4,5-b]pyridin-5-amine], the IC50 is no more than 60 nM.
As to `Nc1cc(OCc2nc(Br)ccc2F)c2nn[nH]c2n1` [Example 95, 7-((6-Bromo-3-fluoropyridin-2-yl)methoxy)-3H-[1,2,3]triazolo[4,5-b]pyridin-5-amine], the IC50 was no more than 60 nM.
With `Cn1ccc(-c2ccc(F)c(COc3cc(N)nc4[nH]nnc34)n2)n1` [Example 96, 7-((3-Fluoro-6-(1-methyl-1H-pyrazol-3-yl)pyridin-2-yl)methoxy)-3H-[1,2,3]triazolo[4,5-b]pyridin-5-amine], the IC50 is no more than 60 nM.
On the same count and under the same terms, the figure for `Nc1cc(OCc2nc(-c3ccc(N4CCNCC4)nc3)ccc2F)c2nn[nH]c2n1` [Example 97, 7-((5-fluoro-6′-(piperazin-1-yl)-[2,3′-bipyridin]-6-yl)methoxy)-3H-[1,2,3] triazolo[4,5-b]pyridin-5-amine] is no more than 60 nM; for `Nc1cc(OCc2nc(-c3ccc(C4CC4)nc3)ccc2F)c2nn[nH]c2n1` [Example 98, 7-((6′-cyclopropyl-S-fluoro-[2,3′-bipyridin]-6-yl)methoxy)-3H-[1,2,3]triazolo[4,5-b] pyridin-5-amine] it is no more than 60 nM.
As for `Nc1cc(OCc2ncc(-c3ccc(N4CCNCC4)nc3)cc2F)c2nn[nH]c2n1` [Example 99, 7-((5-fluoro-6′-(piperazin-1-yl)-[3,3′-bipyridin]-6-yl)methoxy)-3H-[1,2,3] triazolo[4,5-b]pyridin-5-amine], the half-maximal inhibitory concentration (IC50) was no more than 60 nM.

The same experiment, now with this note: MPO peroxidation assay IC50 values (binned), MPO peroxidation (Amplex Red), ranges given.
For the molecule `Nc1cc(OCc2nn(-c3ccccc3)nc2CO)c2nn[nH]c2n1` [Example 64, (5-(((5-Amino-3H-[1,2,3]triazolo[4,5-b]pyridin-7-yl)oxy)methyl)-2-phenyl-2H-1,2,3-triazol-4-yl)methanol], the IC50 was 60 to 150 nM.
